Measured values taken from ChEMBL document CHEMBL1201862, “PubChem BioAssay data set” (2004).
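These data come from cells grown in 96-well plates and exposed to compound for 48 hours at five concentrations. GI50: concentration for 50% inhibition of growth.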 Calls of active or inactive are those of the source. Cut-off read from the data, not from the text of the source: active = GI50 up to about 1.1 µM and inactive = higher.

How the values were obtained:
Assay in all cases: NCI-60 cell line screen, 48 h
[1] = tested on: 786-0
[2] = tested on: A498
[3] = tested on: A549
[4] = tested on: ACHN
[5] = tested on: BT-549
[6] = tested on: CAKI-1
[7] = tested on: CCRF-CEM
[8] = tested on: COLO 205
[9] = tested on: DU-145
[10] = tested on: EKVX
[11] = tested on: HCC 2998
[12] = tested on: HCT-116
[13] = tested on: HCT-15
[14] = tested on: HL-60
[15] = tested on: HOP-62
[16] = tested on: IGROV-1
[17] = tested on: K562
[18] = tested on: KM12
[19] = tested on: LOX IMVI
[20] = tested on: MCF7
[21] = tested on: MDA-MB-231
[22] = tested on: MDA-MB-435
[23] = tested on: MDA-N
[24] = tested on: MOLT-4
[25] = tested on: Malme-3M
[26] = tested on: NCI-H226
[27] = tested on: NCI-H23
[28] = tested on: NCI-H460
[29] = tested on: NCI/ADR-RES
[30] = tested on: OVCAR-3
[31] = tested on: OVCAR-4
[32] = tested on: OVCAR-5
[33] = tested on: OVCAR-8
[34] = tested on: RPMI-8226
[35] = tested on: RXF 393
[36] = tested on: SF-268
[37] = tested on: SF-295
[38] = tested on: SF-539
[39] = tested on: SK-MEL-28
[40] = tested on: SK-MEL-5
[41] = tested on: SK-OV-3
[42] = tested on: SN12C
[43] = tested on: SNB-19
[44] = tested on: SNB-75
[45] = tested on: SW-620
[46] = tested on: T47D
[47] = tested on: TK-10
[48] = tested on: U-251
[49] = tested on: UACC-257
[50] = tested on: UACC-62
[51] = tested on: UO-31

**Q.** What does the source list for O=c1c2nn[nH]c2nc2n1CC(c1ccccc1)S2 (stereo unspecified)?
**A.** GI50 [1]: > 100 µM (inactive); GI50 [2]: > 100 µM (inactive); GI50 [3]: > 100 µM (inactive); GI50 [4]: > 100 µM (inactive); GI50 [5]: > 100 µM (inactive); GI50 [6]: 13 µM (inactive); GI50 [7]: > 100 µM (inactive); GI50 [8]: > 100 µM (inactive); GI50 [9]: > 100 µM (inactive); GI50 [10]: > 100 µM (inactive); GI50 [11]: > 100 µM (inactive); GI50 [12]: > 100 µM (inactive); GI50 [13]: > 100 µM; GI50 [14]: > 100 µM (inactive); GI50 [15]: > 100 µM (inactive); GI50 [16]: > 100 µM (inactive); GI50 [17]: > 100 µM (inactive); GI50 [18]: > 100 µM (inactive); GI50 [19]: > 100 µM (inactive); GI50 [20]: > 100 µM (inactive); GI50 [21]: > 100 µM (inactive); GI50 [22]: > 100 µM (inactive); GI50 [23]: > 100 µM (inactive); GI50 [24]: > 100 µM (inactive); GI50 [25]: > 100 µM (inactive); GI50 [26]: > 100 µM (inactive); GI50 [27]: > 100 µM (inactive); GI50 [28]: > 100 µM (inactive); GI50 [29]: > 100 µM (inactive); GI50 [30]: > 100 µM (inactive); GI50 [31]: > 100 µM (inactive); GI50 [32]: > 100 µM (inactive); GI50 [33]: > 100 µM (inactive); GI50 [34]: > 100 µM (inactive); GI50 [35]: 29 µM (inactive); GI50 [36]: > 100 µM (inactive); GI50 [37]: > 100 µM (inactive); GI50 [38]: > 100 µM (inactive); GI50 [39]: > 100 µM (inactive); GI50 [40]: > 100 µM (inactive); GI50 [41]: > 100 µM (inactive); GI50 [42]: > 100 µM (inactive); GI50 [43]: > 100 µM (inactive); GI50 [44]: 72.1 µM (inactive); GI50 [45]: > 100 µM (inactive); GI50 [46]: > 100 µM (inactive); GI50 [47]: > 100 µM (inactive); GI50 [48]: > 100 µM (inactive); GI50 [49]: > 100 µM (inactive); GI50 [50]: > 100 µM (inactive); GI50 [51]: 45.3 µM (inactive)
